{
  "source": "patent US9289405B2",
  "about": "“Compounds provided with antioxidant activity against free radicals, and pharmaceutical and cosmetic compositions containing them” (GIULIANI S.P.A, priority 2010, dated 2016)",
  "key": {"THP-1 cells": {"system": "THP-1 cells", "assay": "Modulation of the production of ROS induced by LPS, cytofluorometry with DCFH", "assay_type": "cell-based, human", "conditions": "1 hour treatment, serum-free medium, LPS 0.1 μg/ml, compared with Trolox 100 μM, FIG. 1", "description": "(§1) Two cellular systems were used: NCTC 2544, a line of human keratinocytes, and THP-1, a human promyelocytic line. The results were expressed as mean±standard deviation. Each experiment was repeated at least twice.\nTributyltin (TBT) and lipopolysaccharide (LPS) are used as […] inducers of radical species. The production of ROS was evaluated by cytofluorometry techniques for the THP-1 cell line, using DCFH as stain.\nThe optimum times and concentrations for cytofluorometric measurement of ROS were identified in preliminary experiments.\nThe vitamin E derivative 6-hydroxy-2,5,7,8-tetramethylchroman-2-carboxylic acid (Trolox), at a concentration of 100 μM, was used as positive control.\nThe THP-1 cells were treated for 1 hour with compounds 1 and 2 of the invention at a concentration of 100 μg/ml, with compound 3 at a concentration of 200 μg/ml and with Trolox 100 μM in serum-free medium, loaded in the last 30 minutes with DCFH (10 μM) and then treated in the presence or absence of LPS (0.1 μg/ml) and analysed in the cytofluorometer."}, "NCTC 2544 cells": {"system": "NCTC 2544 cells", "assay": "Lipid lipoperoxidation induced by TBT, malondialdehyde content via thiobarbituric acid", "assay_type": "cell-based, human", "conditions": "24 hours pre-treatment at maximum tolerated concentration, then TBT 2.5 μM for 24 hours, FIG. 2", "description": "as §1\nLipid peroxidation was evaluated on the NCTC 2544 cells by measuring the content of malondialdehyde, one of the main by-products of lipid peroxidation, through its reactivity with thiobarbituric acid. The results are expressed as absorbance/mg protein. The protein content was evaluated by the Bradford method.\nThe NCTC cells were treated for 24 hours in the presence or in the absence of the maximum tolerated concentration of said compounds 1, 2, 3, and then stimulated with TBT 1-2.5 μM for a further 24 hours.\nTrolox 100 μM was used as positive control."}},
  "note": "Structures can show the parent of a compound that is named as a salt.",
  "data": [
    {"smiles": "C/C=C/C=C/C=C/C(=O)O", "note": "[compound 1, 2E,4E,6E-octatrienoic acid]", "values": [
      {"measurement": "production of ROS induced by LPS", "setting": "THP-1 cells; compound at 100 μg/ml", "value": "nullifying the production of ROS induced by LPS 0.1 μg/ml to an extent not less than Trolox"},
      {"measurement": "lipoperoxidation induced by TBT (malondialdehyde content)", "setting": "NCTC 2544 cells", "value": "statistically significant (p<0.05) decrease of lipoperoxidation"}
    ]},
    {"smiles": "C/C=C/C=C/C=C/C(=O)[O-].[K+]", "note": "[compound 2, potassium 2E,4E,6E-octatrienoate]", "values": [
      {"measurement": "production of ROS induced by LPS", "setting": "THP-1 cells; compound at 100 μg/ml", "value": "nullifying the production of ROS induced by LPS 0.1 μg/ml to an extent not less than Trolox"},
      {"measurement": "lipoperoxidation induced by TBT (malondialdehyde content)", "setting": "NCTC 2544 cells", "value": "statistically significant (p<0.05) decrease of lipoperoxidation"}
    ]},
    {"smiles": "C/C=C/C=C/C=C/C(=O)O", "note": "[compound 3, 2E,4E,6E-octatrienoic acid, L-lysine salt]", "values": [
      {"measurement": "production of ROS induced by LPS", "setting": "THP-1 cells; compound at 200 μg/ml", "value": "nullifying the production of ROS induced by LPS 0.1 μg/ml to an extent not less than Trolox"}
    ]}
  ]
}
